Results as given in patent US10428043B2, “Green oxidation catalytic system” (TRUSTEES OF BOSTON UNIVERSITY, priority 2014, dated 2019).
Values joined by “and” are separate entries in the source; they are usually repeats but may differ in a detail not shown here. Equal values may be shown once. Read-outs that look alike come from different tables or passages of the source.

Experiments:
[1] = Cyclic voltammetry, redox potentials; type: physicochemical
Text: All reagents and solvents used were purchased from commercial sources and used as received unless otherwise noted. Prior to use, methanol (Pharmco-Aaper) was distilled over magnesium metal, dimethyl sulfoxide (Fisher Scientific) was distilled over calcium hydride, triethylamine was distilled over sodium metal and unstabilized dichloromethane (Fisher Scientific) was distilled over calcium hydride. Ferrocene was purified by sublimation for use as a reference for electrochemical analyses. All manipulations involving ferrous complexes were carried out in an inert atmosphere glovebox (M. Braun, Stratham, N.H.) with distilled and thoroughly degassed solvents. UV/Vis spectra were collected using a Hewlett Packard Spectrometer (8453). IR spectra were collected using a Thermo Nicolet AVATAR 330-FT-IR. Cyclic voltammetry experiments were performed using a Princeton Applied Research model 273 potentiostat with a glassy carbon working electrode, a silver wire reference electrode and a platinum wire counter electrode. Electron Paramagnetic Resonance (EPR) spectra were collected on a Bruker ESP-300E spectrometer operating at 9.460 GHz. NMR spectra were recorded at 25° C. using a Varian spectrometer operating at 400 MHz with all chemical shifts referenced to SiMe4. Iron concentrations were determined using a Varian AA240Z Atomic Absorption Spectrometer.
Cyclic voltammetry was performed inside an inert atmosphere (N2) box, with degassed DMSO as the solvent and tetra-N-butylammonium hexafluorophosphate as the supporting electrolyte (0.2M). The ferrocenium/ferrocene couple was used as an internal reference; reduction potential values were corrected by assigning the ferrocenium/ferrocene couple to 0.64 V versus NHE (Zanello, P. Inorganic Electrochemistry; The Royal Society of Chemistry: Cambridge, 2003). Chloride titration experiments were performed by collecting CV data after the addition of one and two 50 μL aliquots of 204 mM [NEt4][Cl] to 3.0 mL of 3.4 mM [Fe^II(N2O1py)(Cl)2]^− (concentration determined using flame atomic absorption spectroscopy) and correcting the potential with reference to the ferrocenium/ferrocene couple.
It should be noted that these redox potentials were determined in the absence of excess halide, and further CV studies will be performed in the presence of excess halide for all derivatives of the N2O1py system.

[2] = Stopped-flow kinetics of NO binding at −85° C. in methanol; conditions: NO 6.4 mM
Text: (§1) Stopped-flow Spectroscopy and Data analysis.

[3] = cited from earlier work; for second order rate constant k of NO binding: 20° C., stopped-flow with laser flash photolysis
[4] = Catalytic oxidation of methanol to formaldehyde with α-KG and O2 (Nash assay); conditions: for Total TON / TON: Methanol; for TON: product Formaldehyde
[5] = Room temperature O2 reactivity of ferrous complexes followed by UV/vis
Protocol: The solution was transferred to an anaerobic UV/vis cell and sealed. An initial spectrum was obtained of the ferrous complex, and then the solution was exposed to the air. Spectra were recorded every minute for the first two minutes and then every 5-30 minutes after that for seven hours. The absorbance was monitored at 350 nm to follow formation of the oxidized complex.
This solution was then transferred to an anaerobic UV/vis cell and sealed. An initial spectrum was obtained of the ferrous complex, and then the solution was exposed to the air. Spectra were collected every minute for the first 30 minutes and then every 5-20 minutes after that for 2 hours. The absorbance was monitored at 315 nm to follow formation of the oxidized complex.

[6] = estimated value for the functional group; cited from earlier work
[7] = Reactivity with α-KG, O2 and cyclooctane (GC-MS); conditions: Cyclooctane
Protocol: (§2) Reactivity Studies. […] (10-20 mM).

[8] = Reactivity with α-KG, O2 and 2,4-di-tert-butyl phenol (GC-FID); conditions: O2, [Fe] 9.6 μM
Protocol: as §2

[9] = Reactivity with α-KG, O2 and 9,10-dihydroanthracene (GC-FID); conditions: O2, [Fe] 10.1 μM
Protocol: as §2
(17) with α-KG, 02, and 9,10-dihydroanthracene.

[10] = cited from earlier work
[11] = Reactivity with α-KG, O2 and cyclohexene (GC); conditions: Cyclohexene
[12] = Low-temperature stopped-flow kinetics of binding of α-KG to 17; conditions: 17 + α-KG
[13] = Low-temperature stopped-flow kinetics of binding of p-CH3-BF to 17; conditions: 17 + p-CH3-BF
[14] = Low-temperature stopped-flow kinetics of adduct complexes with dioxygen; conditions: complex 0.94-1.1 mM, O2 5 mM, methanol, −85° C.
Protocol: as §1
Kinetic studies of [Fe^II(N2O1)(α-KG)(CH3OH)]^− and [Fe^II(N2O1)(p-X-BF)(CH3OH)]^− adduct complexes with dioxygen. Low-temperature stopped flow studies of this reaction were performed.
Order dependence analysis.
The kinetic model was built by starting from simple two- and three-exponential processes.
Stoichiometry of the equations for the proposed model in FIG. 29: […]

[15] = DMSO, glassy carbon working electrode, absence of excess halide
[16] = calculated from redox potentials for the one-electron transfer between iron and dioxygen

Compound: CN(C)CCN(C)CC(=O)[O-].[Cl-].[Cl-].[Cl-].[Fe+3] [Fe^III N2O1, [Fe^III(N2O1)(Cl)3]]
- E1/2 ([1]; no added halide, in mV): +136

Compound: CN(C)c1cccc2cccc([NH+](C)C)c12.CN(CC(=O)[O-])Cc1ccccn1.[Cl-].[Cl-].[Cl-].[Fe+3] [Fe^III N2O1py, [PSH][Fe^III(N2O1py)(Cl)3]]
- ΔE ([1]; no added halide): 128 mV
- E1/2 ([1]; no added halide, in mV): +189

Compound: O.O.O=C([O-])CN(CCN(CC(=O)[O-])CC(=O)O)CC(=O)[O-].[Cl-].[K+].[Ru+3] [K[Ru^III(Hedta)Cl].2H2O]
- k20 (loss of a ligand before NO binding) [2]: 8.2 s⁻¹
- k21 (second order, NO binding) [2]: 127 M⁻¹ s⁻¹
- rate k of reaction with NO ([3]; room temperature, aqueous solution, depending on pH): 38000 to 120000 M⁻¹ s⁻¹

Compound: O.O.O.O.O.O.[Fe+2] [[Fe(H2O)6)]^2+]
- second order rate constant k of NO binding [3]: 1.42e+06 M⁻¹ s⁻¹

Compound: CN(CC(=O)[O-])Cc1ccccn1.O=C([O-])CCC(=O)C(=O)[O-].[Fe+2] [[Fe^II(N2O1py)(αKG)]]
- turnover number (equivalents of formaldehyde per iron center) ([4]; N2O1py system, iron complex 1.0 μM, five equivalents [Na][αKG], O2, 60 min): 33
- turnover number (equivalents of formaldehyde per equivalent of iron) ([4]; N2O1py system, iron complex 100 μM, five equivalents [Na][αKG], O2, 60 min): 0.7
- time for reaction with O2, in words ([5]; αKG adduct): within minutes

Compound: C#Cc1ccnc(CN(C)CC(=O)[O-])c1.CC[NH+](CC)CC.CO.[Cl-].[Cl-].[Fe+2] [[Fe^II(N2O1py-alkyne)], [C6H16N][Fe^II(N2O1-alkyne)(MeOH)(Cl)2]]
- E1/2 [1, 15]: 270 mV

Compound: N#C[N-]C#N.N#C[N-]C#N.N#C[N-]C#N.N#C[N-]C#N.N#C[N-]C#N.[Cl-].[Fe+2] [[Fe^II(dca)5Cl]^4−]
- second order rate constant k of NO binding [3]: 1.7e+07 M⁻¹ s⁻¹

Compound: CN(CC(=O)O)Cc1ccccn1 [[H2N2O1py]^+, 2-(methyl(pyridine-1-ium-2-ylmethyl)ammonio)acetate]
- estimated pKa, carboxylic acid [6]: ~4.8
- estimated pKa, pyridinium [6]: ~5.2
- estimated pKa, tertiary ammonium [6]: ~10

Compound: CN(C)CCN(C)CC(=O)[O-].[Cl-].[Cl-].[Fe+2].[Na+] [compound 17, [Fe^II(N2O1)Cl2][Na]]
- Total TON ([4]; O2, [Fe] 1.0 μM): 285
- TON ([4]; O2, [Fe] 1.0 μM): 285
- Total TON ([4]; O2, [Fe] 6.2 μM): 54
- TON ([4]; O2, [Fe] 6.2 μM): 54
- Total TON ([4]; O2, [Fe] 8.0 μM): 36
- TON ([4]; O2, [Fe] 8.0 μM): 36
- Total TON ([4]; O2, [Fe] 12.5 μM): 22
- TON ([4]; O2, [Fe] 12.5 μM): 22
- Total TON ([4]; O2, [Fe] 100 μM): 3.5
- TON ([4]; O2, [Fe] 100 μM): 3.5
- Total TON ([4]; O2, [Fe] 200 μM): 2.1
- TON ([4]; O2, [Fe] 200 μM): 2.1
- Total TON ([4]; O2, [Fe] 300 μM): 1.3
- TON ([4]; O2, [Fe] 300 μM): 1.3
- Total TON ([4]; O2, [Fe] 500 μM): 0.82
- TON ([4]; O2, [Fe] 500 μM): 0.82
- Total TON ([4]; O2, [Fe] 2500 μM): 0.46
- TON ([4]; O2, [Fe] 2500 μM): 0.46
- Total TON ([4]; O2, [Fe] 5000 μM): 0.39
- TON ([4]; O2, [Fe] 5000 μM): 0.39
- Total TON ([7]; Air, [Fe] 1.1 μM): 317
- TON ([7]; Air, [Fe] 1.1 μM, product Cyclooctanol): 189
- TON ([7]; Air, [Fe] 1.1 μM, product Cyclooctanone): 64
- Total TON ([7]; O2, [Fe] 1.1 μM): 305
- TON ([7]; O2, [Fe] 1.1 μM, product Cyclooctanol): 182
- TON ([7]; O2, [Fe] 1.1 μM, product Cyclooctanone): 62
- Total TON ([7]; O2, [Fe] 9.7 μM): 40
- TON ([7]; O2, [Fe] 9.7 μM, product Cyclooctanol): 24
- TON ([7]; O2, [Fe] 9.7 μM, product Cyclooctanone): 7.8
- Total TON [8]: 619
- TON ([8]; product 3,3′-5,5′-terta-t-butyl-2,2′-dihydroxybiphenyl): 619
- Total TON [9]: 128
- TON ([9]; product Anthracene): 54
- TON ([9]; product Anthraquinone): 26
- TON ([9]; product Anthrone): 21
- E1/2 [1, 15]: 159 mV
- Keq [1, 16]: 1.1 × 10^−8
- ΔG° [1, 16]: 45 kJ
- E1/2 ([1]; no added halide, in mV): +159
- time for formation of the diferric oxo-bridged product on reaction with O2 ([5]; methanol): ~6 h
- solubility ([10]; DMF and DMSO): only slightly soluble
- solubility ([10]; other common polar and nonpolar aprotic solvents, including CH3CN, CH2Cl2, THF, Et2O, toluene and ethyl acetate): insoluble
- solubility ([10]; protic solvents): soluble
- Total TON ([11]; O2, [Fe] 9.6 μM): 520
- Total TON ([11]; O2, [Fe] 9.6 μM + TEMPO): 414
- TON ([11]; O2, [Fe] 9.6 μM + TEMPO (6 × 10^4 excess), product Cyclohexene oxide): 53
- TON ([11]; O2, [Fe] 9.6 μM + TEMPO, product 2-Cyclohexen-1-ol): 240
- TON ([11]; O2, [Fe] 9.6 μM + TEMPO, product 2-Cyclohexen-1-one): 60
- TON ([11]; O2, [Fe] 9.6 μM, product 2-Cyclohexen-1-ol): 249
- TON ([11]; O2, [Fe] 9.6 μM, product 2-Cyclohexen-1-one): 70
- TON ([11]; O2, [Fe] 9.6 μM, product Cyclohexene oxide): 132
- k15 ([12]; methanol, −85° C.): 9.6 M⁻¹ s⁻¹ and 10 ± 0.2 M⁻¹ s⁻¹
- k16 ([12]; methanol, −85° C.): 1.7 s⁻¹ and 1.7 ± 0.5 s⁻¹
- k17 ([12]; methanol, −85° C.): 0.53 s⁻¹ and 0.5 ± 0.1 s⁻¹
- ΔH^‡ of k15 ([12]; −85 to −70° C.): 8.6 ± 0.48 kcal/mol
- ΔH^‡ of k16 ([12]; −85 to −70° C.): 12 ± 1.2 kcal/mol
- ΔH^‡ of k17 ([12]; −85 to −70° C.): 11.2 ± 1.4 kcal/mol
- ΔS^‡ of k16 ([12]; −85 to −70° C.): 31.3±23 J mol^−1 K^−1 and 31 ± 23 J mol^−1 K^−1
- ΔS^‡ of k17 ([12]; −85 to −70° C.): 3 ± 1 J mol^−1 K^−1
- k15 ([13]; methanol, −85° C.): 45.3 M⁻¹ s⁻¹ and 45 ± 5 M⁻¹ s⁻¹
- k16 ([13]; methanol, −85° C.): 12 ± 1 s⁻¹
- k17 ([13]; methanol, −85° C.): 1.2 ± 0.1 s⁻¹
- ΔH^‡ of k15 ([13]; −85 to −70° C.): 8.37 ± 0.48 kcal/mol
- ΔH^‡ of k16 ([13]; −85 to −70° C.): 10 ± 2.2 kcal/mol
- ΔH^‡ of k17 ([13]; −85 to −70° C.): 9.08 ± 0.24 kcal/mol
- ΔS^‡ of k16 ([13]; −85 to −70° C.): 1.5 ± 0.9 J mol^−1 K^−1
- ΔS^‡ of k17 ([13]; −85 to −70° C.): 36.9±15 J mol^−1 K^−1 and 37 ± 15 J mol^−1 K^−1

Compound: CN(C)CCN(C)CC(=O)[O-].CO.N#Cc1ccc(C(=O)C(=O)[O-])cc1.[Fe+2] [compound 25, [Fe^II(N2O1)(p-CN-BF)(CH3OH)]]
- k′1 [14]: 8.7 ± 1.2 s⁻¹
- k′2 [14]: 140 ± 12 M⁻¹ s⁻¹
- k′3 [14]: 60 ± 5 s⁻¹
- k′4 (k′4obs) [14]: 0.2 ± 0.02 s⁻¹

Compound: CN(C)CCN(C)CC(=O)[O-].CO.Nc1ccc(C(=O)C(=O)[O-])cc1.[Fe+2] [compound 26, [Fe^II(N2O1)(p-NH2-BF)(CH3OH)]]
- k′1 [14]: 8.5 ± 1.8 s⁻¹
- k′2 [14]: 2700 ± 300 M⁻¹ s⁻¹
- k′3 [14]: 1.0 ± 0.2 s⁻¹
- k′4 (k′4obs) [14]: 1.7 ± 0.4 s⁻¹
